{"source": "patent US5061794A", "about": "“Cephalosporin derivatives, and antibacterial agents” (priority 1986, dated 1991)", "key": {"[1]": {"test_system": "P. vulgaris HX-19", "experiment": "in vitro antibacterial activity, agar plate dilution method (MIC)", "format": "cell-based", "details": "Proteus vulgaris, HX19, 16 h, P. vulgaris HX-19; 10^6 CFU/ml; read-out: Minimum Inhibitory Concentration (MIC)", "in_short": "(§1)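 Each organism, pre-grown overnight in Mueller Hinton broth, is inoculated at 10^6 CFU/ml onto Mueller Hinton agar series with increasing compound concentration; growth inhibition is scored after 16 h, 37° C., giving MIC (μg/ml).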"}, "[2]": {"test_system": "E. coli NIHJ JC2", "experiment": "in vitro antibacterial activity, agar plate dilution method (MIC)", "format": "cell-based", "details": "Escherichia coli, NIHJJC2, 16 h, read-out: Minimum Inhibitory Concentration (MIC), E. coli NIHJ JC2, 10^6 CFU/ml, 37° C.", "in_short": "as §1"}, "[3]": {"test_system": "S. aureus 209P NIHJ-JC1", "experiment": "in vitro antibacterial activity, agar plate dilution method (MIC)", "format": "cell-based", "details": "Staphylococcus aureus, 16 h, S. aureus 209P NIHJ-JC1; 10^6 CFU/ml, 37° C., 16 hours; read-out: Minimum Inhibitory Concentration (MIC)", "in_short": "as §1"}, "[4]": {"test_system": "S. marcescens IAM 1184", "experiment": "in vitro antibacterial activity, agar plate dilution method (MIC)", "format": "cell-based", "details": "Serratia marcescens, IAM1184, 16 h, S. marcescens IAM 1184; 10^6 CFU/ml; read-out: Minimum Inhibitory Concentration (MIC)", "in_short": "as §1"}, "[5]": {"test_system": "K. pneumoniae No. 42", "experiment": "in vitro antibacterial activity, agar plate dilution method (MIC)", "format": "cell-based", "details": "Klebsiella pneumoniae, NO.42, 16 h, read-out: Minimum Inhibitory Concentration (MIC), *K. pneumoniae No. 42, lactamase-producing strain; 10^6 CFU/ml", "in_short": "as §1"}, "[6]": {"test_system": "K. oxytoca GN10650", "experiment": "in vitro antibacterial activity, agar plate dilution method (MIC)", "format": "cell-based", "details": "Klebsiella oxytoca, GN10650, 16 h, read-out: Minimum Inhibitory Concentration (MIC), *K. oxytoca GN10650, lactamase-producing strain; 10^6 CFU/ml", "in_short": "as §1"}, "[7]": {"test_system": "K. pneumoniae PCI-602", "experiment": "in vitro antibacterial activity, agar plate dilution method (MIC)", "format": "cell-based", "details": "Klebsiella pneumoniae, PCI602, 16 h, read-out: Minimum Inhibitory Concentration (MIC), K. pneumoniae PCI-602; 10^6 CFU/ml", "in_short": "as §1"}, "[8]": {"test_system": "E. coli GN5482", "experiment": "in vitro antibacterial activity, agar plate dilution method (MIC)", "format": "cell-based", "details": "Escherichia coli, GN5482, 16 h, read-out: Minimum Inhibitory Concentration (MIC)", "in_short": "as §1"}, "[9]": {"test_system": "M. morganii GN5407", "experiment": "in vitro antibacterial activity, agar plate dilution method (MIC)", "format": "cell-based", "details": "Morganella morganii, GN5407, 16 h, read-out: Minimum Inhibitory Concentration (MIC), *M. morganii GN5407, lactamase-producing strain; 10^6 CFU/ml", "in_short": "as §1"}, "[10]": {"test_system": "E. cloacae Nek 39", "experiment": "in vitro antibacterial activity, agar plate dilution method (MIC)", "format": "cell-based", "details": "Enterobacter cloacae, NEK39, 16 h, read-out: Minimum Inhibitory Concentration (MIC), *E. cloacae Nek 39, lactamase-producing strain; 10^6 CFU/ml", "in_short": "as §1"}, "[11]": {"test_system": "P. vulgaris No. 33", "experiment": "in vitro antibacterial activity, agar plate dilution method (MIC)", "format": "cell-based", "details": "Proteus vulgaris, NO.33, 16 h, read-out: Minimum Inhibitory Concentration (MIC), *P. vulgaris No. 33, lactamase-producing strain; 10^6 CFU/ml", "in_short": "as §1"}, "[12]": {"test_system": "S. marcescens No. 16-2", "experiment": "in vitro antibacterial activity, agar plate dilution method (MIC)", "format": "cell-based", "details": "Serratia marcescens, NO.162, 16 h, read-out: Minimum Inhibitory Concentration (MIC)", "in_short": "as §1"}, "[13]": {"test_system": "E. cloacae 963", "experiment": "in vitro antibacterial activity, agar plate dilution method (MIC)", "format": "cell-based", "details": "Enterobacter cloacae, 963, 16 h, read-out: Minimum Inhibitory Concentration (MIC), E. cloacae 963; 10^6 CFU/ml", "in_short": "as §1"}, "[14]": {"test_system": "Ps. cepacia 23", "experiment": "in vitro antibacterial activity, agar plate dilution method (MIC)", "format": "cell-based, Pseudomonas cepacia", "details": "Burkholderia cepacia, 16 h; Ps. cepacia 23; 10^6 CFU/ml; read-out: Minimum Inhibitory Concentration (MIC)", "in_short": "as §1"}, "[15]": {"test_system": "E. coli CSH2 (RK1)", "experiment": "microbe, parasite or virus in culture", "format": "cell-based", "details": "Escherichia coli, 16 h, read-out: Minimum Inhibitory Concentration (MIC), *E. coli CSH2 (RK1), lactamase-producing strain; 10^6 CFU/ml", "in_short": "as §1"}, "[16]": {"test_system": "E. coli CSH(RE45)", "experiment": "microbe, parasite or virus in culture", "format": "cell-based", "details": "Escherichia coli, 16 h, read-out: Minimum Inhibitory Concentration (MIC), *E. coli CSH(RE45), lactamase-producing strain; 10^6 CFU/ml", "in_short": "as §1"}, "[17]": {"test_system": "Enterobacter cloacae GN 5797", "experiment": "β-lactamase inducibility", "format": "cell-based", "details": "antibiotic at 50, 10 and 1 μg/ml; cephaloridine as substrate", "method": "The assay method for induction of β-lactamase by β-latam antibiotics was as follows:\nThe test organism, Enterobacter cloacae GN 5797, was grown overnight in Mueller Hinton broth (Dlfco Laboratories, Detroit, Mich.) at 37° C. The culture was diluted 10-fold into 20 ml of the flesh medium and incubated with shaking at 37° C. After 2 hours of incubation, antibiotics were added to final concentrations of 50 μg/ml, 10 μg/ml and 1 μg/ml, and the incubation was continued. At 1 hour intervals after the addition of antibiotic, 3 ml of sample was taken, and immediately added with 0.1 ml of 50 mM sodium azide. The cells were harvested and washed with 50 mM phosphate buffer (ph 7.0). The cells were suspended in 5 ml of 50 mM phosphate buffer and disrupted with a sonicater in an ice-water bath. The broken cells were centrifuged at 16,500 G for 40 minutes at 4° C., and the resulting supernatant fluid was used as the crude enzyme. β-Lactamase activity was determined by a sopectrophotometric method (Antmicrob. Agents Chemother. 17, 355-358, 1980) with cephaloridine as substrate. The concentration of protein was determined by the method of Lowry (J. Biol. Chem. 193, 265-275, 1951). […] As a representative example, the compound of EXAMPLE 50 was administered to mice by means of subcutaneous administration, and the concentration in the blood was measured."}, "[18]": {"test_system": "Ps. aeruginosa IF03445", "experiment": "in vitro antibacterial activity, agar plate dilution method (MIC)", "format": "cell-based, Pseudomonas aeruginosa", "details": "Pseudomonas aeruginosa, IF03445, 16 h, read-out: Minimum Inhibitory Concentration (MIC), Ps. aeruginosa IF03445; 10^6 CFU/ml", "in_short": "as §1"}, "[19]": {"test_system": "Ps. aeruginosa AK 109", "experiment": "in vitro antibacterial activity, agar plate dilution method (MIC)", "format": "cell-based, Pseudomonas aeruginosa", "details": "Pseudomonas aeruginosa, AK109, 16 h, Ps. aeruginosa AK 109; 10^6 CFU/ml; read-out: Minimum Inhibitory Concentration (MIC)", "in_short": "as §1"}, "[20]": {"test_system": "Ps. aeruginosa AKR17", "experiment": "in vitro antibacterial activity, agar plate dilution method (MIC)", "format": "cell-based, Pseudomonas aeruginosa", "details": "Pseudomonas aeruginosa, AKR17, 16 h, read-out: Minimum Inhibitory Concentration (MIC), Ps. aeruginosa AKR17; 10^6 CFU/ml", "in_short": "as §1"}, "[21]": {"test_system": "A. calcoaceticus No. 4", "experiment": "in vitro antibacterial activity, agar plate dilution method (MIC)", "format": "cell-based, Acinetobacter calcoaceticus", "details": "Acinetobacter calcoaceticus, NO.4, 16 h, A. calcoaceticus No. 4; 10^6 CFU/ml; read-out: Minimum Inhibitory Concentration (MIC)", "in_short": "as §1"}}, "data": [{"smiles": "CC(C)(O/N=C(\\C(=O)N[C@@H]1C(=O)N2C(C(=O)O)=C(CSc3nnc(-c4ccc(O)c(O)c4)o3)CS[C@H]12)c1csc(N)n1)C(=O)O", "note": "[Ex. 11, disodium 7β-[2-(2-aminothiazol-4-yl)-(1-carboxylate-1-methylethoxyimino)acetamido]-3-[5(3,4-dihydroxyphenyl)-1,3,4-oxadiazol-2-yl]thiomethyl-3-cephem-4-carboxylate]", "values": [{"measurement": "MIC", "setting": "[1]", "result": "< 0.006", "unit": "µg/mL"}, {"measurement": "MIC", "setting": "[2]", "result": 0.1, "unit": "µg/mL"}, {"measurement": "MIC", "setting": "[3]", "result": 25, "unit": "µg/mL"}, {"measurement": "MIC", "setting": "[4]", "result": 0.0125, "unit": "µg/mL"}, {"measurement": "MIC", "setting": "[5]", "result": 0.025, "unit": "µg/mL"}, {"measurement": "MIC", "setting": "[6]", "result": 0.0125, "unit": "µg/mL"}, {"measurement": "MIC", "setting": "[7]", "result": "< 0.006", "unit": "µg/mL"}, {"measurement": "MIC", "setting": "[8]", "result": 0.39, "unit": "µg/mL"}, {"measurement": "MIC", "setting": "[9]", "result": 0.05, "unit": "µg/mL"}, {"measurement": "MIC", "setting": "[10]", "result": 0.05, "unit": "µg/mL"}, {"measurement": "MIC", "setting": "[11]", "result": 0.025, "unit": "µg/mL"}, {"measurement": "MIC", "setting": "[12]", "result": 0.39, "unit": "µg/mL"}, {"measurement": "MIC", "setting": "[13]", "result": 0.025, "unit": "µg/mL"}, {"measurement": "MIC", "setting": "[14]", "result": "< 0.006", "unit": "µg/mL"}, {"measurement": "MIC", "setting": "[15]", "result": "< 0.006", "unit": "µg/mL"}, {"measurement": "MIC", "setting": "[16]", "result": 1.56, "unit": "µg/mL"}, {"measurement": "β-lactamase inducibility", "setting": "[17]", "result": "no substantial β-lactamase-inducing activity was observed"}, {"measurement": "MIC", "setting": "[18]", "result": 0.39, "unit": "µg/mL"}, {"measurement": "MIC", "setting": "[19]", "result": 0.2, "unit": "µg/mL"}, {"measurement": "MIC", "setting": "[20]", "result": 1.56, "unit": "µg/mL"}, {"measurement": "MIC", "setting": "[21]", "result": 0.05, "unit": "µg/mL"}]}]}
